Active and inactive are the calls of the source. The rule behind the calls is not given here.
Tested on: CCRIS mutagenicity, Ames/micronucleus/aberration tests
Assay: CCRIS mutagenicity studies

Measured: mutagenic call

CCCCC(CC)COC(=O)c1ccccc1C(=O)OCC(CC)CCCC (stereo not drawn)
inactive: End Point: IN VITRO MICRONUCLEUS, Test System: V79 CELLS, Metabolic Activation: NONE inactive; negative | End Point: IN VITRO MICRONUCLEUS, Test System: V79 CELLS, Metabolic Activation: RAT, LIVER, S-9, AROCLOR 1254 inactive; negative | End Point: IN VIVO MICRONUCLEUS, Test System: HEPATOCYTES, Species: RAT, Strain/Sex: FISHER 344 OR SD/MALE, Route: ORAL OR IP inactive; negative | End Point: IN VIVO MICRONUCLEUS, Test System: PERIPHERAL BLOOD RETICULOCYTES, Species: RAT, Strain/Sex: FISHER 344 OR SD/MALE, Route: ORAL OR IP inactive; negative | Test System: AMES SALMONELLA TYPHIMURIUM, Strain/Indicator: TA97, Metabolic Activation: HAMSTER LIVER S-9, AROCLOR 1254 (10 OR 30%), Method: PREINCUBATION inactive; negative | Test System: AMES SALMONELLA TYPHIMURIUM, Strain/Indicator: TA97, Metabolic Activation: NONE, Method: PREINCUBATION inactive; negative | Test System: AMES SALMONELLA TYPHIMURIUM, Strain/Indicator: TA97, Metabolic Activation: NONE, Method: STANDARD PLATE inactive; negative | Test System: AMES SALMONELLA TYPHIMURIUM, Strain/Indicator: TA97, Metabolic Activation: RAT LIVER S-9, AROCLOR 1254 (10 OR 30%), Method: PREINCUBATION inactive; negative | Test System: AMES SALMONELLA TYPHIMURIUM, Strain/Indicator: TA97, Metabolic Activation: S-9, Method: STANDARD PLATE inactive; negative | Test System: AMES SALMONELLA TYPHIMURIUM, Strain/Indicator: TA98, Metabolic Activation: HAMSTER LIVER S-9, AROCLOR 1254 (10 OR 30%), Method: PREINCUBATION inactive; negative | Test System: AMES SALMONELLA TYPHIMURIUM, Strain/Indicator: TA98, Metabolic Activation: HAMSTER, LIVER, S-9, AROCLOR 1254 (10%), Method: PREINCUBATION inactive; negative | Test System: AMES SALMONELLA TYPHIMURIUM, Strain/Indicator: TA98, Metabolic Activation: NONE, Method: FLUCTUATION (MICROTITER) inactive; negative | Test System: AMES SALMONELLA TYPHIMURIUM, Strain/Indicator: TA98, Metabolic Activation: NONE, Method: STANDARD PLATE inactive; negative | Test System: AMES SALMONELLA TYPHIMURIUM, Strain/Indicator: TA98, Metabolic Activation: RAT LIVER S-9, AROCLOR 1254 (10 OR 30%), Method: PREINCUBATION inactive; negative | Test System: AMES SALMONELLA TYPHIMURIUM, Strain/Indicator: TA98, Metabolic Activation: RAT LIVER S-9, AROCLOR 1254, Method: FLUCTUATION (MICROTITER) inactive; negative | Test System: AMES SALMONELLA TYPHIMURIUM, Strain/Indicator: TA98, Metabolic Activation: RAT LIVER S-9, PHENOBARBITAL AND BETA-NAPHTHOFLAVONE, Method: PREINCUBATION inactive; negative | Test System: AMES SALMONELLA TYPHIMURIUM, Strain/Indicator: TA98, Metabolic Activation: RAT, LIVER, S-9, AROCLOR 1254 (10%), Method: PREINCUBATION inactive; negative | Test System: AMES SALMONELLA TYPHIMURIUM, Strain/Indicator: TA98, Metabolic Activation: RAT, LIVER, S-9, AROCLOR 1254, Method: STANDARD PLATE inactive; negative | Test System: AMES SALMONELLA TYPHIMURIUM, Strain/Indicator: TA98, Metabolic Activation: S-9, Method: STANDARD PLATE inactive; negative | Test System: AMES SALMONELLA TYPHIMURIUM, Strain/Indicator: TA100, Metabolic Activation: HAMSTER LIVER S-9, AROCLOR 1254 (10 OR 30%), Method: PREINCUBATION inactive; negative | Test System: AMES SALMONELLA TYPHIMURIUM, Strain/Indicator: TA100, Metabolic Activation: HAMSTER, LIVER, S-9, AROCLOR 1254 (10%), Method: PREINCUBATION inactive; negative | Test System: AMES SALMONELLA TYPHIMURIUM, Strain/Indicator: TA100, Metabolic Activation: NONE, Method: STANDARD PLATE inactive; negative | Test System: AMES SALMONELLA TYPHIMURIUM, Strain/Indicator: TA100, Metabolic Activation: RAT LIVER S-9, AROCLOR 1254 (10 OR 30%), Method: PREINCUBATION inactive; negative | Test System: AMES SALMONELLA TYPHIMURIUM, Strain/Indicator: TA100, Metabolic Activation: RAT LIVER S-9, PHENOBARBITAL AND BETA-NAPHTHOFLAVONE, Method: PREINCUBATION inactive; negative | Test System: AMES SALMONELLA TYPHIMURIUM, Strain/Indicator: TA100, Metabolic Activation: RAT, LIVER, S-9, AROCLOR 1254 (10%), Method: PREINCUBATION inactive; negative | Test System: AMES SALMONELLA TYPHIMURIUM, Strain/Indicator: TA100, Metabolic Activation: RAT, LIVER, S-9, AROCLOR 1254, Method: STANDARD PLATE inactive; negative | Test System: AMES SALMONELLA TYPHIMURIUM, Strain/Indicator: TA100, Metabolic Activation: S-9, Method: STANDARD PLATE inactive; negative | Test System: AMES SALMONELLA TYPHIMURIUM, Strain/Indicator: TA102, Metabolic Activation: CO631 CELLS, Method: STANDARD PLATE inactive; negative | Test System: AMES SALMONELLA TYPHIMURIUM, Strain/Indicator: TA102, Metabolic Activation: NONE, Method: STANDARD PLATE inactive; negative | Test System: AMES SALMONELLA TYPHIMURIUM, Strain/Indicator: TA102, Metabolic Activation: PANCREATIN, Method: STANDARD PLATE inactive; negative | Test System: AMES SALMONELLA TYPHIMURIUM, Strain/Indicator: TA102, Metabolic Activation: PORCINE, PANCREAS, LIPASES, Method: STANDARD PLATE inactive; negative | Test System: AMES SALMONELLA TYPHIMURIUM, Strain/Indicator: TA102, Metabolic Activation: RAT HEPATOCYTES, Method: STANDARD PLATE inactive; negative | Test System: AMES SALMONELLA TYPHIMURIUM, Strain/Indicator: TA102, Metabolic Activation: RAT LIVER S-9, PHENOBARBITAL AND 5,6-BENZOFLAVONE, Method: STANDARD PLATE inactive; negative | Test System: AMES SALMONELLA TYPHIMURIUM, Strain/Indicator: TA102, Metabolic Activation: S-9, Method: STANDARD PLATE inactive; negative | Test System: AMES SALMONELLA TYPHIMURIUM, Strain/Indicator: TA1535, Metabolic Activation: HAMSTER LIVER S-9, AROCLOR 1254 (10 OR 30%), Method: PREINCUBATION inactive; negative | Test System: AMES SALMONELLA TYPHIMURIUM, Strain/Indicator: TA1535, Metabolic Activation: HAMSTER, LIVER, S-9, AROCLOR 1254 (10%), Method: PREINCUBATION inactive; negative | Test System: AMES SALMONELLA TYPHIMURIUM, Strain/Indicator: TA1535, Metabolic Activation: NONE, Method: STANDARD PLATE inactive; negative | Test System: AMES SALMONELLA TYPHIMURIUM, Strain/Indicator: TA1535, Metabolic Activation: RAT LIVER S-9, AROCLOR 1254 (10 OR 30%), Method: PREINCUBATION inactive; negative

Reference: PubChem BioAssay AID1259407 (Chemical Carcinogenesis Research Information System (CCRIS), 2018)
